Results taken from US20120328569A1, “INHIBITORS OF HEPATITIS C VIRUS NS5B POLYMERASE” (priority 2010, published 2012).

System: HCV genotype 1b replicon
Test: HCV replicon assay, cell ELISA with antibody to replicon-encoded NS3/4A (genotype 1b replicon)
Assay type: cell-based, hepatitis C virus
Conditions: Hepatitis C virus, 96 h, read-out: 1b IC50(nM), HCV genotype 1b replicon; 96 hours incubation; NS3/4A cell ELISA
How it was run: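 An ELISA on lysed cells, using an antibody against NS3/4A protease, served as the proxy for replicon RNA. Cells had first been exposed for 96 h to serially diluted compound in G418-free conditions. Percent of DMSO control was fitted with a four-parameter function to give IC50.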

SMILES | IC50 [nM]
CNC(=O)c1c(-c2ccc(F)cc2)oc2cc(N(CCF)S(C)(=O)=O)c(-c3ccc(OC)c(-c4nc5cccc(F)c5o4)c3)cc12 [Example 871] | 3.5
CNC(=O)c1c(-c2ccc(F)cc2)oc2cc(N(CCC(F)(F)F)S(C)(=O)=O)c(-c3cccc(-c4nc5ncccc5o4)c3)cc12 [Example 872] | 4.7
CNC(=O)c1c(-c2ccc(F)cc2)oc2cc(N(CCF)S(C)(=O)=O)c(-c3cc(F)cc(-c4nc5ncccc5o4)c3)cc12 [Example 873] | 3.4
CNC(=O)c1c(-c2ccc(F)cc2)oc2cc(N(C)S(C)(=O)=O)c(-c3ccc(OC)c(-c4nc5c(F)ccc(F)c5o4)c3)cc12 [Example 874] | 2.1
CNC(=O)c1c(-c2ccc(F)cc2)oc2cc(N(C(C)CF)S(C)(=O)=O)c(-c3cccc(-c4nc5ncccc5o4)c3)cc12 (stereo not shown) [Example 875] | 2.1
CNC(=O)c1c(-c2ccc(F)cc2)oc2cc(N(CC(F)F)S(C)(=O)=O)c(-c3cc(F)cc(-c4nc5ncccc5o4)c3)cc12 [Example 876] | 3.5
CNC(=O)c1c(-c2ccc(F)cc2)oc2cc(N(CC(F)F)S(C)(=O)=O)c(-c3ccc(OC)c(-c4nc5ncccc5o4)c3)cc12 [Example 877] | 5.1
CNC(=O)c1c(-c2ccc(F)cc2)oc2cc(N(CC(F)F)S(C)(=O)=O)c(-c3ccc(OC)c(-c4nc5cccc(F)c5o4)c3)cc12 [Example 878] | 17.2
CNC(=O)c1c(-c2ccc(F)cc2)oc2cc(N(CCC(C)(C)O)S(C)(=O)=O)c(-c3cc(F)cc(-c4nc5ncccc5o4)c3)cc12 [Example 879] | 2.6
CNC(=O)c1c(-c2ccc(F)cc2)oc2cc(N(CCC(C)(C)O)S(C)(=O)=O)c(-c3ccc(OC)c(-c4nc5ncccc5o4)c3)cc12 [Example 880] | 2.9
